Source: EP4574835A1, “AMORPHOUS FORM OF KETOAMIDE DERIVATIVE, AND PREPARATION METHOD THEREFOR” (Guangdong Raynovent Biotech Co., Ltd., priority 2022, dated 2024)

Experiment: Pharmacokinetic model of mouse
Type: in vivo

Q: For `O=C(NC1CCCC1)C(=O)[C@H](C[C@@H]1CCNC1=O)NC(=O)[C@@H]1[C@H]2CCC[C@H]2CN1C(=O)[C@@H](NC(=O)C(F)(F)F)C1CCCCC1` [Compound of Formula (I)], which clearance rate is on record?
A: The clearance rate was “lower”.

Q: What about the half-life of the same compound?
A: The half-life was “longer”.
